Data: PubChem BioAssay (NCI)
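GI50 marks 50% less growth. At the TGI there is no net growth.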

Tests used:
Experiment in all cases: DTP human tumour cell line panel, 384-well format
[1] = test system: 786-0 renal
[2] = test system: A498 renal
[3] = test system: A549 NSCLC
[4] = test system: ACHN renal
[5] = test system: BT-549 breast
[6] = test system: CAKI-1 renal
[7] = test system: CCRF-CEM leukemia
[8] = test system: COLO 205 colon
[9] = test system: DU-145 prostate
[10] = test system: EKVX NSCLC
[11] = test system: HCC-2998 colon
[12] = test system: HCT-15 colon
[13] = test system: HL-60(TB) leukemia
[14] = test system: HOP-62 NSCLC
[15] = test system: HOP-92 NSCLC
[16] = test system: HS 578T breast
[17] = test system: HT29 colon
[18] = test system: IGROV1 ovarian
[19] = test system: K-562 leukemia
[20] = test system: KM12 colon
[21] = test system: LOX IMVI melanoma
[22] = test system: M14 melanoma
[23] = test system: MALME-3M melanoma
[24] = test system: MCF7 breast
[25] = test system: MDA-MB-231 breast
[26] = test system: MDA-MB-435 melanoma
[27] = test system: MDA-MB-468 breast
[28] = test system: MOLT-4 leukemia
[29] = test system: NCI-H226 lung
[30] = test system: NCI-H23 lung
[31] = test system: NCI-H322M lung
[32] = test system: NCI-H460 NSCLC
[33] = test system: NCI-H522 lung
[34] = test system: NCI/ADR-RES ovarian
[35] = test system: OVCAR-3 ovarian
[36] = test system: OVCAR-4 ovarian
[37] = test system: OVCAR-5 ovarian
[38] = test system: OVCAR-8 ovarian
[39] = test system: PC-3 prostate
[40] = test system: RPMI-8226 leukemia
[41] = test system: RXF 393 renal
[42] = test system: SF-268 CNS
[43] = test system: SF-295 CNS
[44] = test system: SF-539 CNS
[45] = test system: SK-MEL-28 melanoma
[46] = test system: SK-MEL-5 melanoma
[47] = test system: SK-OV-3 ovarian
[48] = test system: SNB-19 CNS
[49] = test system: SNB-75 CNS
[50] = test system: SR leukemia
[51] = test system: SW-620 colon
[52] = test system: T-47D breast
[53] = test system: TK-10 renal
[54] = test system: UACC-257 melanoma
[55] = test system: UACC-62 melanoma
[56] = test system: UO-31 renal

With `Cn1c(=O)n(-c2ccc(C(C)(C)C#N)cc2)c2c3cc(-c4cnc5ccccc5c4)ccc3ncc21` the GI50 [1] was less than 10 nM, the TGI [1] was 1190 nM and the GI50 [2] was less than 10 nM. The TGI [2] was 16.8 nM, the GI50 [3] was less than 10 nM and the TGI [3] was 1330 nM. For the same molecule, the GI50 [4] was less than 10 nM, the TGI [4] was greater than 100 µM and the GI50 [5] was less than 10 nM. The TGI [5] was 62.8 nM, the GI50 [6] was 12.7 nM and the TGI [6] was greater than 100 µM. It also gave a GI50 [7] of less than 10 nM, a TGI [7] of 103 nM and a GI50 [8] of 21.5 nM. For the same molecule, the TGI [8] was 262 nM, the GI50 [9] was less than 10 nM and the TGI [9] was greater than 100 µM. For the same molecule, the GI50 [10] was less than 10 nM, the TGI [10] was 85.1 nM and the GI50 [11] was less than 10 nM. It also gave a TGI [11] of 480 nM, a GI50 [12] of less than 10 nM and a TGI [12] greater than 100 µM. The GI50 [13] was 104 nM, the TGI [13] was 1110 nM and the GI50 [14] was less than 10 nM. The TGI [14] was 191 nM, the GI50 [15] was less than 10 nM and the TGI [15] was 64.2 nM. The GI50 [16] was less than 10 nM, the TGI [16] was 19.8 nM and the GI50 [17] was 29.5 nM. It also gave a TGI [17] greater than 100 µM, a GI50 [18] of less than 10 nM and a TGI [18] of 28.6 nM. It also gave a GI50 [19] of 13.9 nM, a TGI [19] of 12.8 µM and a GI50 [20] of 13.5 nM. The TGI [20] was 1290 nM, the GI50 [21] was less than 10 nM and the TGI [21] was 69.8 nM. The GI50 [22] was 13.6 nM, the TGI [22] was 599 nM and the GI50 [23] was less than 10 nM. It also gave a TGI [23] of 23 nM, a GI50 [24] of less than 10 nM and a TGI [24] of 185 nM. The GI50 [25] was less than 10 nM, the TGI [25] was greater than 100 µM and the GI50 [26] was 17.6 nM. For the same molecule, the TGI [26] was 492 nM, the GI50 [27] was less than 10 nM and the TGI [27] was 30.4 nM. For the same molecule, the GI50 [28] was less than 10 nM, the TGI [28] was 86 nM and the GI50 [29] was less than 10 nM. It also gave a TGI [29] of 62.3 nM, a GI50 [30] of 34.5 nM and a TGI [30] of 723 nM. It also gave a GI50 [31] of 12.1 nM, a TGI [31] of 2560 nM and a GI50 [32] of less than 10 nM. For the same molecule, the TGI [32] was 532 nM, the GI50 [33] was 10.4 nM and the TGI [33] was 237 nM. For the same molecule, the GI50 [34] was 29.7 nM, the TGI [34] was 8.07 µM and the GI50 [35] was 12.3 nM. For the same molecule, the TGI [35] was 1700 nM, the GI50 [36] was less than 10 nM and the TGI [36] was 27.2 nM. It also gave a GI50 [37] of 13.3 nM, a TGI [37] of 298 nM and a GI50 [38] of less than 10 nM. For the same molecule, the TGI [38] was greater than 100 µM, the GI50 [39] was less than 10 nM and the TGI [39] was 2110 nM. The GI50 [40] was less than 10 nM, the GI50 [41] was less than 10 nM and the TGI [41] was greater than 100 µM. It also gave a GI50 [42] of 19.4 nM, a TGI [42] of 3.36 µM and a GI50 [43] of less than 10 nM. It also gave a TGI [43] of 31.5 nM, a GI50 [44] of less than 10 nM and a TGI [44] of 707 nM. For the same molecule, the GI50 [45] was 13.5 nM, the TGI [45] was 95 nM and the GI50 [46] was 12.7 nM. It also gave a TGI [46] of 41.1 nM, a GI50 [47] of less than 10 nM and a TGI [47] of 60.2 nM. The GI50 [48] was 40.8 nM, the TGI [48] was greater than 100 µM and the GI50 [49] was less than 10 nM. The TGI [49] was 80.9 nM, the GI50 [50] was less than 10 nM and the TGI [50] was 17.2 nM. It also gave a GI50 [51] of 28.2 nM, a TGI [51] greater than 100 µM and a GI50 [52] of less than 10 nM. For the same molecule, the TGI [52] was 19.7 nM, the GI50 [53] was 23.9 nM and the TGI [53] was 126 nM. It also gave a GI50 [54] of 21.4 nM, a TGI [54] of 93.7 nM and a GI50 [55] of less than 10 nM. The TGI [55] was 101 nM, the GI50 [56] was 19.6 nM and the TGI [56] was greater than 100 µM.
